Reference: US20250263753A1, “BRIDGED CYCLE-BASED INHIBITORS OF DNA-DEPENDENT PROTEIN KINASE AND COMPOSITIONS AND APPLICATION IN GENE EDITING” (Juno Therapeutics, Inc., priority 2023, published 2025)

What was measured:
[1] = target: ATM (Homo sapiens (Human), UniProt Q13315); assay: ATM biochemical assay (Reaction Biology HTRF kinase assay, 10 μM ATP); details: class symbol
In short: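 HTRF kinase assay with N-terminal GST-tagged human p53 (aa2-393) substrate, 10 μM ATP, in 50 mM Hepes pH 7.5, 10 mM MnCl2, 1% DMSO. Enzyme preincubated with compound 30 min, reaction 2 h at room temperature. pS15 phosphorylation read by Eu-cryptate anti-p53-pS15/anti-GST-d2 HTRF (615/665 nm).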

[2] = target: PI3Kβ (Homo sapiens (Human), UniProt P42338); assay: PI3Kβ biochemical assay (Reaction Biology ADP-Glo); details: class symbol
Procedure: Phosphoinositide 3-kinase R (PI3KP) Biochemical Assay using Reaction Biology's ADP-Glo Assay Platform:
Step 1: Lipid kinases: Reaction Biology Corporation (RBC) currently offers lipid kinases in ADP-Glo format
Step 2: Assay Description Assay principle: The kinase reactions utilize ATP and produce ADP as a byproduct. The ADP production is quantified by ADP-Glo luminescence detection. This is a 3-step reaction: First, the kinase reaction with lipid substrate is carried out in the presence of ATP, and the reaction is quenched and depleted remaining ATP with ADP-Glo™ reagent, and then finally ADP is converted to ATP which is measured using a luciferase/luciferin reaction.
Step 3: Assay Procedure: 1. Prepare kinase in freshly prepared Reaction Buffer, kinase without substrate is delivered to background wells; 2. Deliver substrate into the kinase solution and gently mix, deliver to assay wells; 3. Deliver compounds in 100% DMSO into the kinase reaction mixture by Acoustic technology (Echo550; nanoliter range), incubate for 20 min at room temperature; 4. Deliver ATP into the reaction mixture to initiate the reaction; 5. Incubate for 60 min at 30° C.; 6. Quench the reaction with ADP-Glo reagent and incubate for 40 min; 7. Add Detection Mixture and incubate for 30 min; 8. Measure luminescence.
Step 4: Data Analysis: The luminescence is converted into M ADP production based on ADP standard curves. The nonlinear regression to obtain the standard curve and IC50 values are performed using Graphpad Prism software.

[3] = target: PI3Kα (His-PIK3CA/PIK3R1, p110 alpha/p85 alpha) (Homo sapiens (Human), UniProt P42336); assay: PI3Kα biochemical assay (HTRF/FRET probe); assay type: binding; details: class symbol
Procedure: Phosphoinositide 3-kinase α (PI3Kα) Biochemical Assay: A solution was prepared containing 0.2 nM Anti-HIS-Terbium (Cisbio, 64CUSTAZU), 3.7 nM designed-probe and 1.0 nM His-PIK3CA/PIK3R1 (p110 alpha/p85 alpha) in FRET Buffer (20 mM HEPES, 10 mM MgCl2, 0.015% Brij-35, 4 mM DTT, 0.05 mg/mL BSA).

[4] = target: PI3Kδ (His-PIK3CD/PIK3R1, p110 delta/p85 alpha) (Homo sapiens (Human), UniProt O00329); assay: PI3Kδ biochemical assay (HTRF/FRET probe); assay type: binding; details: class symbol
Procedure: Phosphoinositide 3-kinase (PI3K) Biochemical Assay: A solution was prepared containing 0.2 nM Anti-HIS-Terbium (Cisbio, 64CUSTAZU), 40 nM designed-probe and 1.0 nM His-PIK3CD/PIK3R1 (p110 delta/p85 alpha) in FRET Buffer (20 mM HEPES, 10 mM MgCl2, 0.015% Brij-35, 4 mM DTT, 0.05 mg/mL BSA).

[5] = target: DNA-PK (Homo sapiens (Human), UniProt P78527); assay: DNA-PK biochemical assay (Reaction Biology HotSpot kinase assay, 10 μM ATP); details: read-out: DNA-PK HotSpot 10 μM ATP IC50, class symbol
In short: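 Radiometric 33P-ATP kinase reaction in 20 mM Hepes pH 7.5, 10 mM MgCl2, 1 mM EGTA, 2 mM DTT, 1% DMSO. Compound preincubated with kinase and substrate 20 min at room temperature, then reaction run 2 h at room temperature after ATP addition. Activity read by P81 filter binding.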

Chain of PI3Kδ (His-PIK3CD/PIK3R1, p110 delta/p85 alpha) (O00329 whole entry, species assumed): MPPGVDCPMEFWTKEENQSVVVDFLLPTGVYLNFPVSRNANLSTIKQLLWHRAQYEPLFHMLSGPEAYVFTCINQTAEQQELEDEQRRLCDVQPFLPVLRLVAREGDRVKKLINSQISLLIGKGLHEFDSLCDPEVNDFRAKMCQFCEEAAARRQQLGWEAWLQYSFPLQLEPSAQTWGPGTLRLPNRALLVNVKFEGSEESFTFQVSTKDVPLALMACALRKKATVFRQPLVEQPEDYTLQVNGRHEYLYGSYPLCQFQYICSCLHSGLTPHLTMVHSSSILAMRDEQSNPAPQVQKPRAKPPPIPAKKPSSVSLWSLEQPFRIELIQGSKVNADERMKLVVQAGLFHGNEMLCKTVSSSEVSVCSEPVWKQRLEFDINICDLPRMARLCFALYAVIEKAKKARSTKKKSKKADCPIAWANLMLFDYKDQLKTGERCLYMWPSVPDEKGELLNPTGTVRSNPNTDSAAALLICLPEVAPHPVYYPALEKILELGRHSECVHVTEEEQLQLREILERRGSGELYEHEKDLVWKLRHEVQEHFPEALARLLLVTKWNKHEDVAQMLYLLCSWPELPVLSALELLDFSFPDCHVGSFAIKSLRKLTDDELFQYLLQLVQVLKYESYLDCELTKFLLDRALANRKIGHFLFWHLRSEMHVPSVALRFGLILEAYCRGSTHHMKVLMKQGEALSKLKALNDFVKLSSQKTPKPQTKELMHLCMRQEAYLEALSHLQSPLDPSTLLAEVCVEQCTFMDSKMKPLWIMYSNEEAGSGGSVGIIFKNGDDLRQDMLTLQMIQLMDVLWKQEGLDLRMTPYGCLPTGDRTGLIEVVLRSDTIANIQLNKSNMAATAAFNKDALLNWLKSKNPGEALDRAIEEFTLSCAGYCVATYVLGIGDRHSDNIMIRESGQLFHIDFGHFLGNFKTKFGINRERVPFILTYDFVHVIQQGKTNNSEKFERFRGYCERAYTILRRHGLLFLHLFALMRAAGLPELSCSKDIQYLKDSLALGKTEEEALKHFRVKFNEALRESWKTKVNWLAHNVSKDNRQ
Chain of PI3Kδ (His-PIK3CD/PIK3R1, p110 delta/p85 alpha) (P27986 whole entry partner, species assumed): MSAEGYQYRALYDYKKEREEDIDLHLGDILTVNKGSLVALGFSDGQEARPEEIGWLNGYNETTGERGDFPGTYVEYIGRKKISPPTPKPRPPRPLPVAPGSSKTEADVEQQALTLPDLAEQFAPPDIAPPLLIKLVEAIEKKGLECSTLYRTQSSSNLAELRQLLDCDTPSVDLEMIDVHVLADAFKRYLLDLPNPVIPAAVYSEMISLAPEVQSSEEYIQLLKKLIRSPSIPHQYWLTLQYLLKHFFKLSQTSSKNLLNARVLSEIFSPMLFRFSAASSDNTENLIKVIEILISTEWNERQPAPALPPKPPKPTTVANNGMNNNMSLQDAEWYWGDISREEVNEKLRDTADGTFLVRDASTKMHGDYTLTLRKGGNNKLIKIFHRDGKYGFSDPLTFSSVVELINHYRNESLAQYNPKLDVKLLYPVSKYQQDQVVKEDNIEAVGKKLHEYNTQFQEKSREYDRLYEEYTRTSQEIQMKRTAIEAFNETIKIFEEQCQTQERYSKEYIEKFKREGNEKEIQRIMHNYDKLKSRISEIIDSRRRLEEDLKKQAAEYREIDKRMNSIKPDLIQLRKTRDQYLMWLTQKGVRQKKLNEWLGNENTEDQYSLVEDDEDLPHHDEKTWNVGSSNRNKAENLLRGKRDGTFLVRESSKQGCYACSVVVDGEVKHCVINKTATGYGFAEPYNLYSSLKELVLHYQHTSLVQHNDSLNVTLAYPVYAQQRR
Chain of PI3Kβ (P42338 whole entry): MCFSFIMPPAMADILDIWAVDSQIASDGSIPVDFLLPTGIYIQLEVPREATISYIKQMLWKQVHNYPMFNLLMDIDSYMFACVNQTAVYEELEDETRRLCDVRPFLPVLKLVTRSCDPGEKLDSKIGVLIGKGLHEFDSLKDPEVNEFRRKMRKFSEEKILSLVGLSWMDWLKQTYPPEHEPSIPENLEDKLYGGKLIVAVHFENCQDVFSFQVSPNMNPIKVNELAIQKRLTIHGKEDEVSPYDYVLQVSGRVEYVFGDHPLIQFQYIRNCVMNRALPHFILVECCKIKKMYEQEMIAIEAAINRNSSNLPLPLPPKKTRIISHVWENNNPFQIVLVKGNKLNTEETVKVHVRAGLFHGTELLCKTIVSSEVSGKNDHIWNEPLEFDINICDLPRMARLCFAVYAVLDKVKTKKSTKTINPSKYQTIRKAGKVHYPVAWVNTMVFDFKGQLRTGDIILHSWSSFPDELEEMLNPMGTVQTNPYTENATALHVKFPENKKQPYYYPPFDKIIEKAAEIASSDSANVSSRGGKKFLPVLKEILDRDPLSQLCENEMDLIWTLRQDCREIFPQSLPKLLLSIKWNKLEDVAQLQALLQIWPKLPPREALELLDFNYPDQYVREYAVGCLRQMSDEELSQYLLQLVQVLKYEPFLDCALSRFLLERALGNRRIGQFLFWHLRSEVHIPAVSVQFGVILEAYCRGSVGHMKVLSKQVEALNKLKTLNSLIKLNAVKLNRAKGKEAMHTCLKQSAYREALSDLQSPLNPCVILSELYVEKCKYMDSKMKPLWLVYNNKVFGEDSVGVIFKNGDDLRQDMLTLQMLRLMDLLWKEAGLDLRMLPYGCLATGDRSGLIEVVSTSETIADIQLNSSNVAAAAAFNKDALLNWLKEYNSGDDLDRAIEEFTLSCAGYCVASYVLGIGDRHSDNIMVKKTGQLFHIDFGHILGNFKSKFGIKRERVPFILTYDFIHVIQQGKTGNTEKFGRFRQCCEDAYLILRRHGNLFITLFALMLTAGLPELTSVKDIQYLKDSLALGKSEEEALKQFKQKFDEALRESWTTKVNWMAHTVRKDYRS
Chain of PI3Kβ (P27986 whole entry partner): as the sequence (P27986 whole entry partner, species assumed) above
Chain of PI3Kα (His-PIK3CA/PIK3R1, p110 alpha/p85 alpha) (P42336 whole entry, species assumed): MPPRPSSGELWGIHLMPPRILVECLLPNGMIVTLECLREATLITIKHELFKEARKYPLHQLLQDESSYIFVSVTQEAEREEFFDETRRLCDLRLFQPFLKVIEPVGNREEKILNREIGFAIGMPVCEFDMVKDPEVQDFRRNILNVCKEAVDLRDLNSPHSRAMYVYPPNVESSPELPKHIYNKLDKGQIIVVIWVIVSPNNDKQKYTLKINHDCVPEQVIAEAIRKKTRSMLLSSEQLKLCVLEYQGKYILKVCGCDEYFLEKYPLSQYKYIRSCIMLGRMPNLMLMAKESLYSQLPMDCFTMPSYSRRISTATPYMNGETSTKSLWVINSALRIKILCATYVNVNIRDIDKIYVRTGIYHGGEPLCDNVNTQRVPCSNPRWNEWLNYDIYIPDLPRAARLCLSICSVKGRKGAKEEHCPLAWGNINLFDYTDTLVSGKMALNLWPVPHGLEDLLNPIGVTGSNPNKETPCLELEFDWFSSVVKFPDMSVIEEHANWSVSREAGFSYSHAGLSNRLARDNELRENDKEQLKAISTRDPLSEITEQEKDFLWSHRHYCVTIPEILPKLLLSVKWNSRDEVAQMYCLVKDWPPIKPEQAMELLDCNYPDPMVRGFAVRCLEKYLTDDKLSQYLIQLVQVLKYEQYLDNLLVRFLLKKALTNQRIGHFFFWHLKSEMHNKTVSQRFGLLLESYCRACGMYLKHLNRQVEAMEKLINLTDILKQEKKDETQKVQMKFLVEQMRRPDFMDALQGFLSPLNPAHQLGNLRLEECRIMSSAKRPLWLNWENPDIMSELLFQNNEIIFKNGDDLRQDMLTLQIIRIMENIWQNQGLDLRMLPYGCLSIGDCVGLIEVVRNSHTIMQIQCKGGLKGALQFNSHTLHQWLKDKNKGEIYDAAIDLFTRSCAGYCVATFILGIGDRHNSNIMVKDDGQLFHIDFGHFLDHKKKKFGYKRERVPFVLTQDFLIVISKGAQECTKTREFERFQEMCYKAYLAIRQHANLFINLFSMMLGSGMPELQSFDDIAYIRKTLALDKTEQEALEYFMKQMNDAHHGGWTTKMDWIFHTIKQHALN
Chain of PI3Kα (His-PIK3CA/PIK3R1, p110 alpha/p85 alpha) (P27986 whole entry partner, species assumed): as the sequence (P27986 whole entry partner, species assumed) above

SMILES	IC50 [1] [nM]	IC50 [2] [nM]	IC50 [3] [nM]	IC50 [4] [nM]	IC50 [5] [nM]
Cc1cc2c(cc1Nc1ncc3c(n1)n(C1CC4CCC1CC4)c(=O)n3C)OCO2 (centres unmarked) [Compound 43, 9-((1s,4s)-bicyclo[2.2.2]octan-2-yl)-7-methyl-2-((6-methylbenzo[d][1,3]dioxol-5-yl)amino)-7,9-dihydro-8H-purin-8-one]	100 to 1000	≥ 1000	≥ 1000	≥ 1000	< 1
Cc1cc2ncccc2cc1Nc1ncc2c(n1)n([C@H]1C[C@@H]3CC[C@H]1C3)c(=O)n2C [Compound 44, 9-((1S,2S,4R)-bicyclo[2.2.1]heptan-2-yl)-7-methyl-2-((7-methylquinolin-6-yl)amino)-7,9-dihydro-8H-purin-8-one]	1 to 10	100 to 1000	10 to 100	100 to 1000	< 1
Cc1cc2ncnn2cc1Nc1ncc2c(n1)n([C@H]1C[C@@H]3CC[C@H]1C3)c(=O)n2C [Compound 45, 9-((1S,2S,4R)-bicyclo[2.2.1]heptan-2-yl)-7-methyl-2-((7-methyl-[1,2,4]triazolo[1,5-a]pyridin-6-yl)amino)-7,9-dihydro-8H-purin-8-one]	10 to 100	100 to 1000	100 to 1000	≥ 1000	< 1
Cc1cc2c(cc1Nc1ncc3c(n1)n([C@H]1C[C@@H]4CC[C@H]1C4)c(=O)n3C)OCO2 [Compound 46, 9-((1S,2S,4R)-bicyclo[2.2.1]heptan-2-yl)-7-methyl-2-((6-methylbenzo[d][1,3]dioxol-5-yl)amino)-7,9-dihydro-8H-purin-8-one]	100 to 1000	≥ 1000	≥ 1000	≥ 1000	< 1
